{"source": "patent US20080269276A1", "about": "“COMPOSITIONS USEFUL FOR TREATING IRRITABLE BOWEL SYNDROME” (Dynogen Pharmaceuticals, Inc., priority 2007, published 2008)", "key": {"[1]": {"tested_on": "males and females with IBS-c", "test": "Phase 2a randomized, double-blind, placebo-controlled clinical trial: weekly symptom-based assessments (OSGA, abdominal discomfort/pain, constipation, satisfaction with bowel habit)", "format": "in vivo, human", "procedure": "The Clinical Trial reported herein was a Phase 2a, Randomized, Double-Blind, Placebo-Controlled Study. In the Study, 91 males and females with IBS-c were administered doses of DDP733 (0.2, 0.5, 0.8 and 1.4 mg) and placebo, three times a day for 28 days (4 weeks). Study Details: • Phase 2a, randomized, double-blinded, placebo controlled parallel group design • 91 males and females with IBS-c • 7 week study with 4 weeks of treatment • Five treatment groups: • DDP733: 0.2 mg, 0.5 mg, 0.8 mg or 1.4 mg three times a day (approximately 30 to 60 minutes before breakfast, lunch and dinner) • PLACEBO: Three times a day (approximately 30 to 60 minutes before breakfast, lunch and dinner). • Assess effect on relief of IBS-c using symptom-based assessment including the following weekly questions: Overall response (OSGA); Abdominal discomfort/pain; Constipation; and Satisfaction with bowel habit. • Assess effect on pharmacodynamic measure (gastrointestinal transit) at baseline and week 4 using radio-opaque markers. • Establish safety profile. Key Subject Inclusion Criteria: • 1. Male or female from 18 to 65 years of age, inclusive • 2. IBS-c for at least three months prior to randomization as defined by the subject's response to the criteria below adapted from the Rome II • Modular Questionnaire: • a. Subject experiences discomfort or pain in the abdomen during at least 3 weeks (at least one day in each week) in the last 3 months. • b. Subject experiences one or more of the following: • i. Discomfort or pain that gets better or stops after a bowel movement • ii. Change in the usual number of bowel movements (either more or fewer) when the discomfort or pain starts • iii. Softer or harder stools than usual when the discomfort or pain starts • c. Patient experiences two or more of the following at least one-fourth (¼) of the occasions or days in the last three months: • i. Fewer than three bowel movements per week (0-2) • ii. Hard or lumpy stools • iii. Straining during a bowel movement • d. Patient experiences none of the following more than one-fourth (¼) of the occasions or days in the last three months: • i. More than three bowel movements a day (4 or more) • ii. Loose, mushy or watery stools • iii. Having to rush to the toilet to have a bowel movement • 3. Completion of at least six days of daily diary assessments in the week of screening prior to Visit 3 with a documented average stool consistency score of ≦2.5. Stool consistency was rated as 1=very hard, 2=hard, 3=formed, 4=loose, 5=watery. Clinical Symptoms were assessed using the following weekly questions: [table] […] Subjects were defined as Overall SGA responders, prior to the study, if: • 1. Somewhat relieved or better at 100% of SGAs (Response 3 at all weekly time points), or considerably/completely relieved for at least 50% of SGAs (Response 1 or 2 for at least 2 of the 4 weekly timepoints) or considerably/completely relieved at Week 4 (Response 1 or 2 at Week AND • 2. No more than 5 days of laxative use excluding bulk-forming laxatives over the 4-week treatment period."}, "[2]": {"tested_on": "males and females with IBS-c", "test": "Phase 2a clinical trial: safety measurements (vital signs, adverse events, clinical laboratory testing, ECGs)", "format": "in vivo, human", "settings": "0.2, 0.5, 0.8 or 1.4 mg three times a day for 28 days", "procedure": "The Clinical Trial reported herein was a Phase 2a, Randomized, Double-Blind, Placebo-Controlled Study. In the Study, 91 males and females with IBS-c were administered doses of DDP733 (0.2, 0.5, 0.8 and 1.4 mg) and placebo, three times a day for 28 days (4 weeks). Study Details: • Phase 2a, randomized, double-blinded, placebo controlled parallel group design • 91 males and females with IBS-c • 7 week study with 4 weeks of treatment • Five treatment groups: • DDP733: 0.2 mg, 0.5 mg, 0.8 mg or 1.4 mg three times a day (approximately 30 to 60 minutes before breakfast, lunch and dinner) • PLACEBO: Three times a day (approximately 30 to 60 minutes before breakfast, lunch and dinner). Safety measurements included monitoring of vital signs and adverse events, clinical laboratory testing and performance of electrocardiograms (ECGs)."}, "[3]": {"settings": "overall responders within the 1.4 mg, 3 times a day treatment group"}}, "note": "Entries after “also recorded” stand apart in the source; their conditions may differ.", "data": [{"smiles": "O=C(N[C@H]1CN2CCC1CC2)c1c[nH]c2ccsc2c1=O", "note": "[DDP733, (R)—N-1-azabicyclo[2.2.2]oct-3-yl-4,7-dihydro-7-oxothieno[3,2-b]pyridine-6-carboxamide]", "values": [{"measurement": "subjects reporting overall symptom relief (Overall SGA responders, OSGA)", "setting": "[1]; 1.4 mg three times a day (4.2 mg/day), oral, 4-week treatment, IBS-c subjects, placebo about 15%", "result": 54, "unit": "%"}, {"measurement": "statistical significance on clinical endpoint overall symptom relief (OSGA)", "setting": "[1]; 1.4 mg three times a day (4.2 mg/day), Pearson chi squared test", "result": "Statistical significance (using the Pearson chi squared test) was achieved"}, {"measurement": "OSGA clinical response at one week post-treatment", "setting": "[1]; 1.4 mg three times a day, one week post-treatment (FIG. 2)", "result": "lost (i.e., returned to the level of placebo); also recorded: loss of response (return to level of placebo response)"}, {"measurement": "other weekly subject global assessments (abdominal discomfort/pain, constipation, satisfaction with bowel habit)", "setting": "[1]; 4.2 mg/day dose, Questionnaires 2, 3 and 4", "result": "consistent pattern of improvement"}, {"measurement": "diarrhea reported by responders during the treatment period", "setting": "[1]; 4.2 mg/day group, responders", "result": "no responders reported any diarrhea"}, {"measurement": "laxative use among responders showing overall symptom relief", "setting": "[1]; 4.2 mg/day group, responders, treatment period", "result": "relief was achieved in all responders without the use of laxatives"}, {"measurement": "constipation and satisfaction with bowel habit", "setting": "[1]; [3]", "result": "also improved on treatment"}, {"measurement": "weekly pain response (Variable 2, abdominal discomfort/pain)", "setting": "[1]; [3]", "result": "a decrease in weekly pain response was observed"}, {"measurement": "drug related adverse events (nausea, pruritis and rash)", "setting": "[2]", "result": "mainly mild-moderate, transient in nature and required no intervention"}, {"measurement": "lab or ECG abnormalities", "setting": "[2]", "result": "no pattern of lab or ECG abnormalities"}]}]}
